Results on 8 compounds are retold here after ChEMBL document CHEMBL1201862, “PubChem BioAssay data set” (2004).

Assay in all cases: DTP human tumour cell line panel, 48 h
The subject of test [1] is IGROV-1.
For test [2], the system named is MOLT-4.
The test system of test [3] is A498.
The test system of test [4] is Malme-3M.
Test [5] has as its system UACC-62.
The test system of test [6] is COLO 205.
The test system of test [7] is RPMI-8226.
Test [8] concerns OVCAR-3.
The subject of test [9] is UACC-257.
The subject of test [10] is SNB-19.
The test system of test [11] is SK-MEL-28.
Test [12] concerns HT-29.
Test [13] concerns EKVX.
Test [14] concerns OVCAR-5.
The subject of test [15] is NCI-H23.
For test [16], the system named is RXF 393.
Test [17] relates to CCRF-CEM.
Test [18] relates to NCI-H522.
Test [19] deals with Hs-578T.

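Interpolation was linear, between the two tested concentrations surrounding the appropriate level; five concentrations were tested over 48 hours in 96-well plates. GI50 marks 50% less growth.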 The source made the active and inactive calls. Rule as the data show it: active = GI50 up to about 1.1 µM and inactive = higher.

Regarding `C/C(=N\NS(=O)(=O)c1ccc([N+](=O)[O-])cc1)c1ccc[n+]([O-])n1`, the GI50 is 3.79 µM (inactive) in [1]; 2.92 µM (inactive) in test [2]; 1.98 µM (inactive) in test [3]; 3.09 µM (inactive) in [4]; 1.21 µM (inactive) in [5]; 2.67 µM (inactive) in test [6]. In addition, the GI50 in [7] was 2.16 µM (inactive); in test [8] it was 2.23 µM (inactive); in [9], 3.8 µM (inactive); in test [10], 3.24 µM (inactive); in test [11], 3.21 µM (inactive); in [12], 2.11 µM (inactive). Also, the GI50 is 6.9 µM (inactive) in test [13]; 2.63 µM (inactive) in test [14]; 1.7 µM (inactive) in [15]; 1.34 µM (inactive) in test [16]; 3.05 µM (inactive) in test [17]; 1.95 µM (inactive) in test [18].

With `CC(=O)N/N=C1\CC(C)(C)C2CCC1C2` (centres undefined), the GI50 in test [1], in test [2], in [3], in test [4], in test [5] and in test [6] was > 100 µM (inactive) in each case. Further, the GI50 in [7], in [8], in [9], in test [10], in [11] and in test [13] was > 100 µM (inactive) each time. For the same compound, the GI50 in test [14], in test [15], in [16], in test [17] and in test [18] was > 100 µM (inactive) throughout.

With `COc1cccc(C2=NC(C(C)C)CO2)c1` (centres undefined), the GI50 in test [1], in test [2], in [3], in [4], in test [5] and in test [6] was > 100 µM (inactive) in each case. Further, the GI50 in test [7], in [8], in test [9], in test [10], in test [11] and in test [12] was > 100 µM (inactive) each time. Moreover, the GI50 in test [13], in [14], in test [15], in test [16], in test [17] and in [18] was > 100 µM (inactive) in each case.

On to `COc1cccc(/C=C2/Sc3scc(-c4ccccc4)[n+]3C2=O)c1O`, for which the GI50 in test [1] is 15.2 µM (inactive); in [2] it was 16.1 µM (inactive); in [19] it was 42.7 µM (inactive); in test [5] it was 15.5 µM (inactive); in test [6], 31.8 µM (inactive); in [8], 26.6 µM (inactive). The GI50 in test [9] was 19.7 µM (inactive); in [10] it was 21.3 µM (inactive); in test [11], 17.3 µM (inactive); in test [12], 20.8 µM (inactive); in [13], 19.2 µM (inactive); in test [14] it was 36.7 µM (inactive). Moreover, the GI50 is 17.3 µM (inactive) in test [15], 14.4 µM (inactive) in test [16], 4.9 µM (inactive) in test [17] and 18.8 µM (inactive) in test [18].

On to `O=C1C(Cl)C(c2ccc(O)cc2)N1n1cnc2ccccc2c1=O` (centres undefined), for which the GI50 in test [1] was > 57.5 µM (inactive); in test [2], 25.6 µM (inactive); in test [3], > 100 µM (inactive); in test [4] it was 37.2 µM (inactive); in test [5], 18.7 µM (inactive); in test [6], 25.3 µM (inactive). Besides, the GI50 in [7] is 19 µM (inactive); in [8], 32 µM (inactive); in test [9], 43.6 µM (inactive); in test [10] it was > 100 µM (inactive); in [11], 26.7 µM (inactive); in test [12], 29.4 µM (inactive). Moreover, the GI50 is 29.7 µM (inactive) in test [13]; > 79.8 µM (inactive) in test [14]; 31 µM (inactive) in test [15]; 19 µM (inactive) in [16]; 26.3 µM (inactive) in [17]; 16.6 µM (inactive) in [18].

For the compound `CC1(C)CC(=O)C(=CNC(=O)c2ccncc2)C(=O)C1`, the GI50 in [1], in test [2], in test [19], in [5], in test [6] and in test [8] was > 100 µM (inactive) each time. For the same compound, the GI50 in [9], in test [10], in [11], in test [12], in test [13] and in [14] was > 100 µM (inactive) each time. The GI50 in test [15], in test [16], in test [17] and in test [18] was > 100 µM (inactive) in each case.

In the case of `CC(C)/C=C1\CCC(CN2CCOCC2)C1=O` (centres undefined), the GI50 in [1] is 14.4 µM (inactive); in [2], 2.99 µM (inactive); in [3] it was > 35.9 µM (inactive); in [4], 15.7 µM (inactive); in test [5], 18 µM (inactive); in test [6], 6.85 µM (inactive). Besides, the GI50 in test [7] is 0.964 µM (active); in [8] it was 18.2 µM (inactive); in test [9], 7.78 µM (inactive); in [10] it was > 100 µM (inactive); in test [11], 17.7 µM (inactive); in test [12] it was 6.7 µM (inactive). For the same compound, the GI50 in test [13] was 19.1 µM (inactive); in test [14], 22.5 µM (inactive); in test [15] it was 17.4 µM (inactive); in [16] it was 4.94 µM (inactive); in [17] it was 2.65 µM (inactive); in test [18], 2.01 µM (inactive).

For the compound `NC(=O)N1N=C2c3ccccc3CC[C@@H]2C1c1ccccc1` (some centres undefined), the GI50 in test [1] is > 100 µM (inactive); in [2] it was 69 µM (inactive); in test [3], > 100 µM (inactive); in test [4], > 100 µM (inactive); in test [5], > 100 µM (inactive); in test [6], > 100 µM (inactive). Further, the GI50 is 63.2 µM (inactive) in [7]; > 100 µM (inactive) in test [8]; > 100 µM (inactive) in [9]; > 100 µM (inactive) in test [10]; > 100 µM (inactive) in test [11]; > 100 µM (inactive) in [12]. Besides, the GI50 in test [13] is > 100 µM (inactive); in test [14] it was > 100 µM (inactive); in [15], > 100 µM (inactive); in [16], > 100 µM (inactive); in test [17], > 100 µM (inactive); in test [18], 61 µM (inactive).

The GI50 is the concentration at which growth is held to half of that of the control.
